According to the supplement of paper PMC10307832:

Assays:
Test in all cases: relative viability (nuclei count vs DMSO), 5 days (fraction); higher = more cells survive
KN-93 + Linsitinib = compound: CN(C/C=C/C1=CC=C(C=C1)Cl)CC2=CC=CC=C2N(CCO)S(=O)(=O)C3=CC=C(C=C3)OC [KN-93] + C[C@]1(O)C[C@@H](c2nc(-c3ccc4ccc(-c5ccccc5)nc4c3)c3c(N)nccn32)C1 [Linsitinib] (partner 1 µM)
Procedure, shortened: (§1)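 Relative viability is defined as nuclei in treated wells over nuclei in vehicle wells. Duplicate plates were run and medians reported. Lung cancer cell lines in 1536-well plates were dosed by pin tool one day after seeding, with one drug or with a fixed anchor-drug dose plus five library-drug doses (not always all listed) in √10 steps, and nuclei were counted after 5 days.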

KN-93 + Dasatinib = compound: CN(C/C=C/C1=CC=C(C=C1)Cl)CC2=CC=CC=C2N(CCO)S(=O)(=O)C3=CC=C(C=C3)OC [KN-93] + Cc1nc(Nc2ncc(C(=O)Nc3c(C)cccc3Cl)s2)cc(N2CCN(CCO)CC2)n1 [Dasatinib] (partner 0.075 µM)
Procedure, shortened: as §1

KN-93 + Vorinostat = compound: CN(C/C=C/C1=CC=C(C=C1)Cl)CC2=CC=CC=C2N(CCO)S(=O)(=O)C3=CC=C(C=C3)OC [KN-93] + O=C(CCCCCCC(=O)Nc1ccccc1)NO [Vorinostat] (partner 1 µM)
Procedure, shortened: as §1

KN-93 + Olaparib = compound: CN(C/C=C/C1=CC=C(C=C1)Cl)CC2=CC=CC=C2N(CCO)S(=O)(=O)C3=CC=C(C=C3)OC [KN-93] + O=C(c1cc(Cc2n[nH]c(=O)c3ccccc23)ccc1F)N1CCN(C(=O)C2CC2)CC1 [Olaparib] (partner 8 µM)
Procedure, shortened: as §1

KN-93 + Tozasertib = compound: CN(C/C=C/C1=CC=C(C=C1)Cl)CC2=CC=CC=C2N(CCO)S(=O)(=O)C3=CC=C(C=C3)OC [KN-93] + Cc1cc(Nc2cc(N3CCN(C)CC3)nc(Sc3ccc(NC(=O)C4CC4)cc3)n2)n[nH]1 [Tozasertib] (partner 0.1 µM)
Procedure, shortened: as §1

Cell Line | relative viability (KN-93 + Linsitinib; first compound 0.08 µM) | relative viability (KN-93 + Linsitinib; first compound 0.253 µM) | relative viability (KN-93 + Linsitinib; first compound 2.53 µM) | relative viability (KN-93 + Linsitinib; first compound 8 µM) | relative viability (KN-93 + Dasatinib; first compound 0.08 µM) | relative viability (KN-93 + Dasatinib; first compound 0.253 µM) | relative viability (KN-93 + Dasatinib; first compound 2.53 µM) | relative viability (KN-93 + Dasatinib; first compound 8 µM) | relative viability (KN-93 + Vorinostat; first compound 0.08 µM) | relative viability (KN-93 + Vorinostat; first compound 0.253 µM) | relative viability (KN-93 + Vorinostat; first compound 2.53 µM) | relative viability (KN-93 + Vorinostat; first compound 8 µM) | relative viability (KN-93 + Olaparib; first compound 0.08 µM) | relative viability (KN-93 + Olaparib; first compound 0.253 µM) | relative viability (KN-93 + Olaparib; first compound 2.53 µM) | relative viability (KN-93 + Olaparib; first compound 8 µM) | relative viability (KN-93 + Tozasertib; first compound 0.08 µM) | relative viability (KN-93 + Tozasertib; first compound 0.253 µM) | relative viability (KN-93 + Tozasertib; first compound 2.53 µM) | relative viability (KN-93 + Tozasertib; first compound 8 µM)
LK-2 | 0.605 | 0.609 | 0.634 | 0.479 | 0.248 | 0.315 | 0.288 | 0.417 | 0.241 | 0.279 | 0.426 | 0.19 | 0.79 | 0.643 | 0.89 | 0.582 | 0.212 | 0.191 | 0.163 | 0.158
LOU-NH91 | 0.926 | 0.856 | 0.931 | 0.791 | 0.504 | 0.532 | 0.604 | 0.458 | 0.957 | 0.835 | 0.903 | 0.8 | 0.901 | 0.809 | 0.976 | 0.847 | 0.618 | 0.663 | 0.586 | 0.477
LU99A | 0.535 | 0.541 | 0.497 | 0.461 | 0.479 | 0.59 | 0.419 | 0.406 | 0.282 | 0.48 | 0.535 | 0.343 | 0.257 | 0.271 | 0.244 | 0.264 | 0.239 | 0.287 | 0.246 | 0.212
LXF-289 | 0.963 | 1 | 0.964 | 0.652 | 0.238 | 0.197 | 0.229 | 0.141 | 0.661 | 0.839 | 0.716 | 0.546 | 0.903 | 1.18 | 1.25 | 0.955 | 0.201 | 0.25 | 0.215 | 0.147
NCI-H23 | 0.522 | 0.617 | 0.659 | 0.53 | 0.64 | 0.84 | 0.818 | 0.439 | 0.596 | 0.626 | 0.543 | 0.258 | 0.3 | 0.251 | 0.407 | 0.233 | 0.327 | 0.359 | 0.439 | 0.267
NCI-H322M | 0.988 | 0.935 | 0.958 | 0.803 | 0.256 | 0.25 | 0.26 | 0.204 | 0.917 | 0.836 | 0.826 | 0.782 | 0.766 | 0.817 | 0.706 | 0.689 | 0.505 | 0.502 | 0.524 | 0.489
NCI-H358 | 0.631 | 0.81 | 0.634 | 0.353 | 0.182 | 0.168 | 0.15 | 0.148 | 0.659 | 0.79 | 0.824 | 0.459 | 0.678 | 0.638 | 0.608 | 0.502 | 0.1 | 0.105 | 0.089 | 0.103
NCI-H441 | 0.48 | 0.818 | 0.799 | 0.245 | 0.758 | 0.639 | 0.617 | 0.458 |  | 1.06 | 0.864 | 0.498 |  | 0.799 | 0.531 | 0.467 | 0.639 | 0.806 | 0.553 | 0.435
NCI-H460 | 0.466 | 1.14 | 0.805 | 0.375 | 0.489 | 0.526 | 0.726 | 0.35 | 0.308 | 0.618 | 1.08 | 0.485 | 0.286 | 0.468 | 0.586 | 0.305 | 0.397 | 0.104 | 0.381 | 0.153
NCI-H520 |  | 1.21 | 1.12 | 0.682 | 0.203 | 0.197 | 0.258 | 0.155 | 0.619 | 0.906 | 0.831 | 0.58 | 0.312 | 0.312 | 0.282 | 0.272 | 0.455 | 0.447 | 0.459 | 0.382
NCI-H596 | 1 | 1.19 | 1.03 | 0.89 | 0.607 | 0.642 | 0.587 | 0.421 | 0.654 | 0.528 | 0.656 | 0.324 | 0.737 | 0.507 | 0.658 | 0.642 | 0.783 | 1.02 | 1.06 | 0.747
NCI-H647 | 1.33 | 1.5 | 1.65 | 0.952 | 0.161 | 0.216 | 0.253 | 0.164 | 0.532 | 0.853 | 0.601 | 0.323 | 0.648 | 0.766 | 0.881 | 0.421 | 0.31 | 0.299 | 0.0549 | 0.196
NCI-H650 | 0.893 | 0.836 | 1.21 | 0.562 | 0.465 | 0.526 | 0.417 | 0.355 | 0.495 | 0.422 | 0.544 | 0.346 | 0.425 | 0.366 | 0.368 | 0.397 | 0.738 | 0.762 | 0.694 | 0.523
NCI-H661 | 0.502 | 0.531 | 0.433 | 0.562 | 1.01 | 0.808 | 0.69 | 0.413 | 0.703 | 0.923 | 0.641 | 0.535 | 0.577 | 0.951 | 0.64 | 0.4 | 0.365 | 0.355 | 0.342 | 0.36
NCI-H727 | 0.292 | 0.223 | 0.256 | 0.223 | 0.44 | 0.399 | 0.415 | 0.237 | 1.05 |  | 1.3 | 1.01 | 0.69 |  | 0.744 | 0.738 | 0.689 | 0.658 | 0.465 | 0.447
NCI-H838 | 0.989 | 0.905 | 1.15 | 0.771 | 0.32 | 0.236 | 0.334 | 0.239 | 0.738 | 0.62 | 0.663 | 0.592 | 0.939 | 0.709 | 1.18 | 0.613 | 0.256 | 0.257 | 0.252 | 0.235
